Assay results as given in patent US11884707B2, “Compositions for detection, inhibition and imaging of indoleamine 2, 3-dioxygenase 1 (IDO1) and methods of making and using same” (Regeneron Pharmaceuticals, Inc., priority 2016, dated 2024).
pEC50: −log10 of the molar value. Where a SMILES comes first, the peptide text is derived from it. Bridges are numbered along the chain shown (N, C = ends). Triazole bridges read from a SMILES are 1,4-linked. [ ]: non-standard residue; d: D form. The star is where a group is joined. Biotinyl(3aR,4R,6aS) = O=C1N[C@@H]2[C@@H](CS[C@@H]2CCCCC(=O)*)N1; Biotin = O=C1N[C@H]2[C@H](CS[C@H]2CCCCC(=O)*)N1; Trp(1-Me) = Cn1cc(C[C@H](N)C(=O)O)c2ccccc21; Lys(N3) = [N-]=[N+]=NCCCC[C@H](N)C(=O)O; Phe(4-F) = N[C@@H](Cc1ccc(F)cc1)C(=O)O; AEEEA = NCCOCCOCCOCC(=O)O; Pra = C#CC[C@H](N)C(=O)O

Molecular target: T1, His-tagged IDO1 human recombinant protein (Homo sapiens, UniProt P14902)
T1 construct: purchased BPS Biosciences 71182
Assay: IDO1 ELISA (affinity assay), sandwich ELISA with immobilized biotinylated macrocycle
Assay type: binding
Conditions: for pEC50: biotin-PEG3-modified macrocycle immobilized on NeutrAvidin plate (2 μM coating), His-tagged human IDO1 200 to 0 nM
Description: A black 96-well NeutrAvidin Coated High Binding Capacity plate (15510, Pierce) was coated with 2 μM biotinylated macrocyclic peptide ligand in TBS (25 mM Tris-HCl, 150 mM NaCl, pH 7.6) for 2 h at room temperature. The plate was aspirated and then washed with Wash Buffer (0.05% (v/v) Tween-20 in PBS, 6×). His-tagged IDO1 human recombinant protein (71182, BPS Biosciences) was serially diluted in Wash Buffer (from 200 to 0 nM) and incubated in the designated microwells for 1 h at room temperature. Microwells were aspirated and subsequently washed with Wash Buffer (11×). To detect the bound IDO1 protein, Alkaline Phosphatase (AP)-conjugated Anti-6×His Tag® antibody [HIS-1] (ab49746, Abcam) was prepared at 1:10,000 dilution and added to the microwells for 1 h at room temperature. The plate was aspirated and washed with Wash Buffer (5×). AttoPhos® AP Fluorescent Substrate System (S1000, Promega) was employed to develop the microwells. Using an excitation wavelength of 430 nm, fluorescent emission at 535 nm was recorded by Beckman Coulter DTX880 photometer. Titration curves were fit using a four-parameter regression curve fitting program to determine EC50 values.
The binding affinities of biotin-PEG3-modified macrocyclic peptide ligands were tested in an ELISA format. For these assays, a dilution series of His-tagged IDO1 human recombinant protein was captured using the macrocyclic peptide ligands immobilized on a NeutrAvidin-coated plate. […] The sequences of the peptide ligands are listed in Table 1, where D-amino acids are denoted in lowercase, Me-Trp=1-methyl-L-tryptophan, and F-Phe=4-fluoro-L-phenylalanine.
The D-alanine substituted, biotin-PEG3-modified macrocycles were tested in the IDO1 ELISA (Affinity assay). For these assays, a dilution series of His-tagged IDO1 human recombinant protein was captured using macrocycles immobilized on a NeutrAvidin-coated plate.

[1] = alanine scan and 3-mer/4-mer variants, biotin-PEG3-modified, FIGS. 15-18

T1 sequence (P14902 whole entry): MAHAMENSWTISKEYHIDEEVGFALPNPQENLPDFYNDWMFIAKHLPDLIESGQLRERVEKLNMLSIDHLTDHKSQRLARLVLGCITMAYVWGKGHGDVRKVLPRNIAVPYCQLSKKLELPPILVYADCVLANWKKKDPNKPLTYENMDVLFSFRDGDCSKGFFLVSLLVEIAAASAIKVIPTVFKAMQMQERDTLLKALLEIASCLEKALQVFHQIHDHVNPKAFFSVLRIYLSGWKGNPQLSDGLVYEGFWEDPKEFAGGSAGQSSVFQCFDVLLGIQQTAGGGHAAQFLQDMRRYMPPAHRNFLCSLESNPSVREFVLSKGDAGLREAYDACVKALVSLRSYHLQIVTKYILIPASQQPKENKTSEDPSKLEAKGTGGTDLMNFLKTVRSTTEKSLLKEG

Structure (SMILES) | pEC50 | Binding affinity to human IDO1 relative to parent macrocycle or sibling variants (in words) [1] | further results
CC(C)C[C@H]1NC(=O)[C@@H](Cc2ccc(O)cc2)NC(=O)[C@@H](Cc2ccccc2)NC(=O)[C@@H](Cc2ccccc2)NC(=O)[C@@H](CCCNC(=N)N)NC(=O)[C@@H](NC(=O)COCCOCCOCCNC(=O)CCCC[C@@H]2SC[C@@H]3NC(=O)N[C@@H]32)Cc2cn(nn2)CCCC[C@@H](C(N)=O)NC1=O [biotin-PEG3-Cy(rffyl)] ({Biotin-AEEEA}-[Pra][dR][dF][dF][dY][dL][Lys(N3)]-NH2; triazole 1-7) | 6.90 |  | 
Cn1cc(C[C@@H]2NC(=O)[C@@H](Cc3ccccc3)NC(=O)[C@@H](CCCNC(=N)N)NC(=O)[C@@H](Cc3ccccc3)NC(=O)[C@@H](NC(=O)COCCOCCOCCNC(=O)CCCC[C@@H]3SC[C@@H]4NC(=O)N[C@@H]43)Cc3cn(nn3)CCCC[C@@H](C(N)=O)NC(=O)[C@@H](CO)NC2=O)c2ccccc21 [biotin-PEG3-Cy(frf(Me-Trp)s)] ({Biotin-AEEEA}-[Pra][dF][dR][dF][Trp(1-Me)][dS][Lys(N3)]-NH2; triazole 1-7) | 7.70 |  | 
C[C@H]1NC(=O)[C@@H](Cc2ccccc2)NC(=O)[C@@H](CCCNC(=N)N)NC(=O)[C@@H](Cc2ccccc2)NC(=O)[C@@H](NC(=O)COCCOCCOCCNC(=O)CCCC[C@@H]2SC[C@@H]3NC(=O)N[C@@H]32)Cc2cn(nn2)CCCC[C@@H](C(N)=O)NC(=O)[C@@H](CO)NC1=O [frfas, Biotin-PEG3-Cy(frfas)] ({Biotin-AEEEA}-[Pra][dF][dR][dF][dA][dS][Lys(N3)]-NH2; triazole 1-7) |  | weakest binding to IDO1 | 
N=C(N)NCCC[C@H]1NC(=O)[C@@H](Cc2ccc(O)cc2)NC(=O)[C@@H](Cc2c[nH]c3ccccc23)NC(=O)[C@@H](NC(=O)COCCOCCOCCNC(=O)CCCC[C@H]2SC[C@H]3NC(=O)N[C@H]32)Cc2cn(nn2)CCCC[C@@H](C(N)=O)NC(=O)[C@@H](Cc2ccc(O)cc2)NC1=O [wyry, Biotin-PEG3-Cy(wyry)] ({Biotinyl(3aR,4R,6aS)-AEEEA}-[Pra][dW][dY][dR][dY][Lys(N3)]-NH2; triazole 1-6) |  | best affinity among the 4-mer macrocycles | 
Cn1cc(C[C@@H]2NC(=O)[C@@H](CCCNC(=N)N)NC(=O)[C@@H](Cc3ccccc3)NC(=O)[C@@H](CO)NC(=O)[C@@H](CC(N)=O)NC(=O)[C@@H](NC(=O)COCCOCCOCCNC(=O)CCCC[C@@H]3SC[C@@H]4NC(=O)N[C@@H]43)Cc3cn(nn3)CCCC[C@@H](C(N)=O)NC2=O)c2ccccc21 [biotin-PEG3-Cy(nsfr(Me-Trp))] ({Biotin-AEEEA}-[Pra][dN][dS][dF][dR][Trp(1-Me)][Lys(N3)]-NH2; triazole 1-7) | 6.91 |  | 
C[C@H]1NC(=O)[C@@H](CCCNC(=N)N)NC(=O)[C@@H](Cc2ccc(O)cc2)NC(=O)[C@@H](Cc2c[nH]c3ccccc23)NC(=O)[C@@H](NC(=O)COCCOCCOCCNC(=O)CCCC[C@@H]2SC[C@@H]3NC(=O)N[C@@H]32)Cc2cn(nn2)CCCC[C@@H](C(N)=O)NC(=O)[C@@H](Cc2ccc(O)cc2)NC1=O [biotin-PEG3-Cy(wyray)] ({Biotin-AEEEA}-[Pra][dW][dY][dR][dA][dY][Lys(N3)]-NH2; triazole 1-7) | 7.60 |  | 
NC(=O)[C@@H]1CCCCn2cc(nn2)C[C@H](NC(=O)COCCOCCOCCNC(=O)CCCC[C@@H]2SC[C@@H]3NC(=O)N[C@@H]32)C(=O)N[C@H](CO)C(=O)N[C@H](Cc2c[nH]c3ccccc23)C(=O)N[C@H](Cc2c[nH]c3ccccc23)C(=O)N[C@@H](Cc2ccc(F)cc2)C(=O)N1 [sww(F-Phe), Biotin-PEG3-Cy(sww(F-Phe))] ({Biotin-AEEEA}-[Pra][dS][dW][dW][Phe(4-F)][Lys(N3)]-NH2; triazole 1-6) |  |  | Maximum ELISA signal for human IDO1 binding (in words) [1]: superior to the other 4-mers generated
CC(C)C[C@H]1NC(=O)[C@@H](NC(=O)COCCOCCOCCNC(=O)CCCC[C@H]2SC[C@H]3NC(=O)N[C@H]32)Cc2cn(nn2)CCCC[C@@H](C(N)=O)NC(=O)[C@H](Cc2ccc(F)cc2)NC(=O)[C@H](Cc2cn(C)c3ccccc23)NC(=O)[C@@H](Cc2ccccc2)NC1=O [lf(Me-Trp)(F-Phe), Biotin-PEG3-Cy(lf(Me-Trp)(F-Phe))] ({Biotinyl(3aR,4R,6aS)-AEEEA}-[Pra][dL][dF][Trp(1-Me)][Phe(4-F)][Lys(N3)]-NH2; triazole 1-6) |  | slight decrease in binding affinity | 
